Results as given in article PMC7450057, “Enhancing intracellular accumulation and target engagement of PROTACs with reversible covalent chemistry” (Nature Communications, 2020).
“And” between values parts separate entries of the source, which are not always exact repeats. Equal entries are not always repeated.

Key:
Mino = assay: IC50 in MCL cell lines (Supplementary Table 2), Mino; details: for Cell Viability (%): Mino cells, replicate wells
full-length BTK protein = target: T1, full-length BTK protein (Homo sapiens, UniProt Q06187); assay: BTK binding assay (Kd, Eurofins DiscoverX)
T1 construct: Kd was measured using the full-length BTK protein by Eurofins DiscoverX; T7 phage fusion or DNA tag for qPCR (generic vendor protocol); purchased Eurofins DiscoverX
T1 sequence (Q06187 whole entry, the tested form may be a part): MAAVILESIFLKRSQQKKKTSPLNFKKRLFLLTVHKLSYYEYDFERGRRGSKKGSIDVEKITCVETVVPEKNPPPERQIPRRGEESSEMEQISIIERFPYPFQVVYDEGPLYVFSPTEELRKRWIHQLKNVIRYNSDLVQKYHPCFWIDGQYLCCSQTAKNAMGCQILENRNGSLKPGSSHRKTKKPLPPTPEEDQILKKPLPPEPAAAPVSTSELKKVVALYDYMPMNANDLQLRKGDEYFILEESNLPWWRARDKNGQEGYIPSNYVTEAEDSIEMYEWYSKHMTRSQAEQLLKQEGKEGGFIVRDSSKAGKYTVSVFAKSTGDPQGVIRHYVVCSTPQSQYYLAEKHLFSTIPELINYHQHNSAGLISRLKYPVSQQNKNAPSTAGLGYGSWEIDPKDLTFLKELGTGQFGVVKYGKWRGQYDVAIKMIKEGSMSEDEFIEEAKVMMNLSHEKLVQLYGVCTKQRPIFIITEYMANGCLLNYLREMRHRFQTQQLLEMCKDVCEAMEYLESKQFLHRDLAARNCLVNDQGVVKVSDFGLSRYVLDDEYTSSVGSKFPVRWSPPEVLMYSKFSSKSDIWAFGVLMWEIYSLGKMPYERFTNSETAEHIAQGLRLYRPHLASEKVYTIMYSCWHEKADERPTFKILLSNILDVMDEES
Experimental: The dissociation equilibrium constant Kd was measured using the full-length BTK protein by Eurofins DiscoverX according to the following protocol: kinase-tagged T7 phage strains were prepared in an E. coli host derived from the BL21 strain. E. coli were grown to log-phase and infected with T7 phage and incubated with shaking at 32 °C until lysis. The lysates were centrifuged and filtered to remove cell debris. The remaining kinases were produced in HEK-293 cells and subsequently tagged with DNA for qPCR detection. […] The liganded beads were blocked with excess biotin and washed with blocking buffer (SeaBlock (Pierce), 1% BSA, 0.05% Tween 20, 1 mM DTT) to remove unbound ligand and to reduce non-specific binding. […] Test compounds were prepared as 111X stocks in 100% DMSO. […] The compounds were then diluted directly into the assays such that the final concentration of DMSO was 0.9%. All reactions performed in polypropylene 384-well plate. Each was a final volume of 0.02 mL. […] The kinase concentration in the eluates was measured by qPCR. For kinase-binding constant determination, an 11-point 3-fold serial dilution of each test compound was prepared in 100% DMSO at 100x final test concentration and subsequently diluted to 1x in the assay (final DMSO concentration = 1%). […] Binding constants (Kd values) were calculated with a standard dose-response curve using the Hill equation: Response=Background+Signal−Background/1+KdHillSlope/Dose^HillSlope
The Hill Slope was set to −1. Curves were fitted using a non-linear least square fit with the Levenberg-Marquardt algorithm.

Rec-1 = assay: IC50 in MCL cell lines (Supplementary Table 2), Rec-1; details: for Cell Viability (%): Rec-1 cells, replicate wells
Jeko-1 = assay: IC50 in MCL cell lines (Supplementary Table 2), Jeko-1; details: for Cell Viability (%): Jeko-1 cells, replicate wells
BTK = BTK (Homo sapiens, UniProt Q06187); assay: In vitro BTK kinase assay (PhosphoSens); assay type: biochemical; parameters: purchased SignalChem B10-10H-10
Chain of BTK (Q06187 whole entry): as the sequence (Q06187 whole entry, the tested form may be a part) above

- IC50 (Mino; Mino, triplicates): > 5000 nM
- Signal (full-length BTK protein; BTK_+DTT, compound concentration 0.00491 nM): 2.09E-05 and 2.12E-05
- Signal (full-length BTK protein; BTK_+DTT, compound concentration 0.0147 nM): 2.23E-05 and 2.05E-05
- Signal (full-length BTK protein; BTK_+DTT, compound concentration 0.0442 nM): 2.23E-05 and 2.20E-05
- Signal (full-length BTK protein; BTK_+DTT, compound concentration 0.133 nM): 2.05E-05
- Signal (full-length BTK protein; BTK_+DTT, compound concentration 0.398 nM): 2.13E-05 and 2.22E-05
- Signal (full-length BTK protein; BTK_+DTT, compound concentration 1.19 nM): 1.80E-05 and 1.97E-05
- Signal (full-length BTK protein; BTK_+DTT, compound concentration 3.58 nM): 1.78E-05 and 1.71E-05
- Signal (full-length BTK protein; BTK_+DTT, compound concentration 10.7 nM): 1.50E-05 and 1.39E-05
- Signal (full-length BTK protein; BTK_+DTT, compound concentration 32.2 nM): 7.62E-06 and 7.96E-06
- Signal (full-length BTK protein; BTK_+DTT, compound concentration 96.7 nM): 2.20E-06 and 2.08E-06
- Signal (full-length BTK protein; BTK_+DTT, compound concentration 290 nM): 4.82E-07 and 5.26E-07
- Signal (full-length BTK protein; BTK_-DTT, compound concentration 0.0152 nM): 1.69E-05 and 1.12E-05
- Signal (full-length BTK protein; BTK_-DTT, compound concentration 0.0457 nM): 1.66E-05 and 1.75E-05
- Signal (full-length BTK protein; BTK_-DTT, compound concentration 0.137 nM): 1.87E-05 and 1.52E-05
- Signal (full-length BTK protein; BTK_-DTT, compound concentration 0.412 nM): 1.34E-05 and 1.41E-05
- Signal (full-length BTK protein; BTK_-DTT, compound concentration 1.23 nM): 1.48E-05 and 1.35E-05
- Signal (full-length BTK protein; BTK_-DTT, compound concentration 3.7 nM): 1.31E-05 and 1.42E-05
- Signal (full-length BTK protein; BTK_-DTT, compound concentration 11.1 nM): 6.46E-06 and 6.66E-06
- Signal (full-length BTK protein; BTK_-DTT, compound concentration 33.3 nM): 2.78E-06 and 2.85E-06
- Signal (full-length BTK protein; BTK_-DTT, compound concentration 100 nM): 8.37E-07 and 7.44E-07
- Signal (full-length BTK protein; BTK_-DTT, compound concentration 300 nM): 2.56E-07 and 2.49E-07
- Kd (full-length BTK protein; full-length BTK, absence of DTT in the buffer, duplicates): 9.1 nM
- IC50 (Rec-1; Rec-1, triplicates): > 5000 nM
- IC50 (Jeko-1; Jeko-1, triplicates): 600 nM
- IC50 (BTK; AssayQuant BTK assay kit, 2.5 nM BTK, 1 mM ATP, duplicates, read-out: BTK inhibition IC50): 2.2 nM
- activity at 2.56 pM (BTK; Supplementary Figure 5, drug concentration 2.56 pM, replicates, read-out: Inhibition(%)): 108%
- activity at 12.8 pM (BTK; Supplementary Figure 5, drug concentration 12.8 pM, replicates, read-out: Inhibition(%)): 105%
- activity at 64 pM (BTK; Supplementary Figure 5, drug concentration 64 pM, replicates, read-out: Inhibition(%)): 109%
- activity at 0.00032 µM (BTK; Supplementary Figure 5, drug concentration 320 pM, replicates, read-out: Inhibition(%)): 96.8%
- activity at 0.0016 µM (BTK; Supplementary Figure 5, drug concentration 1600 pM, replicates, read-out: Inhibition(%)): 64.1%
- activity at 0.008 µM (BTK; Supplementary Figure 5, drug concentration 8000 pM, replicates, read-out: Inhibition(%)): 25.5%
- activity at 0.04 µM (BTK; Supplementary Figure 5, drug concentration 40000 pM, replicates, read-out: Inhibition(%)): 4.68%
- activity at 0.2 µM (BTK; Supplementary Figure 5, drug concentration 200000 pM, replicates, read-out: Inhibition(%)): 1.89%
- activity at 1 µM (BTK; Supplementary Figure 5, drug concentration 1000000 pM, replicates, read-out: Inhibition(%)): 2.91%
- reduction of BTK inhibition activity compared with IRC-Ctrl (BTK; ratio of IC50 values): 7 folds
SMILES: CC(C)(C)C=C(C#N)C(=O)N1CCCC(n2nc(-c3ccc(Oc4ccccc4)cc3)c3c(N)ncnc32)C1 (stereo not drawn) [RC-Ctrl]
- Cell Viability (%) (Mino; 1.25E-06 M): 64.9212% and 67.7956% and 65.2142%
- Cell Viability (%) (Mino; 1.56E-07 M): 72.1676% and 75.0045% and 70.0395%
- Cell Viability (%) (Mino; 2.50E-06 M): 62.0161% and 61.5033% and 61.0381%
- Cell Viability (%) (Mino; 3.13E-07 M): 62.4012% and 64.8258% and 70.1741%
- Cell Viability (%) (Mino; 5.00E-06 M): 55.6234% and 57.3306% and 56.4139%
- Cell Viability (%) (Mino; 6.25E-07 M): 64.669% and 69.1433% and 66.0679%
- Cell Viability (%) (Mino; 7.81E-08 M): 69.6595% and 74.2003% and 68.2948%
- Cell Viability (%) (Rec-1; 1.25E-06 M): 84.1542% and 83.3085% and 82.8961%
- Cell Viability (%) (Rec-1; 1.56E-07 M): 92.1928% and 91.3082% and 92.4737%
- Cell Viability (%) (Rec-1; 2.50E-06 M): 79.0591% and 78.7184% and 77.0987%
- Cell Viability (%) (Rec-1; 3.13E-07 M): 90.2055% and 91.6728% and 91.1737%
- Cell Viability (%) (Rec-1; 5.00E-06 M): 67.2403% and 66.8996% and 66.3946%
- Cell Viability (%) (Rec-1; 6.25E-07 M): 86.0757% and 86.1055% and 87.7342%
- Cell Viability (%) (Rec-1; 7.81E-08 M): 88.6576% and 86.9542% and 93.923%
- Cell Viability (%) (Jeko-1; 1.25E-06 M): 31.3102% and 33.1774% and 45.3843%
- Cell Viability (%) (Jeko-1; 1.56E-07 M): 69.2456% and 61.0172% and 73.2882%
- Cell Viability (%) (Jeko-1; 2.50E-06 M): 11.5927% and 9.314% and 11.5138%
- Cell Viability (%) (Jeko-1; 3.13E-07 M): 58.8318% and 42.4713% and 68.6832%
- Cell Viability (%) (Jeko-1; 5.00E-06 M): 5.458% and 5.865% and 4.45%
- Cell Viability (%) (Jeko-1; 6.25E-07 M): 52.1031% and 47.1602% and 45.3596%
- Cell Viability (%) (Jeko-1; 7.81E-08 M): 53.9062% and 67.1539% and 84.5751%
